# Test results taken from publication PMC9101642 (Molecules, 2022).
# Marks after values point to notes of the source that are not given here.
# Assays:
# [1] = biological target: ERβ (Homo sapiens, UniProt Q92731); test: Fluorescence polarization competition assay: antagonistic potency and relative binding affinity
# [2] = system: MCF-7 cell lines; test: MTT antiproliferative assay; assay type: cell-based, human
# [3] = system: MDA-MB-231 cell lines; test: MTT antiproliferative assay; assay type: cell-based, human; conditions: Homo sapiens, MDA-MB-231; growth inhibition, 48 h; read-out: MDA-MB-231 (IC50 nM)
# [4] = biological target: T1, ERα (Homo sapiens, UniProt P03372); test: ERα down-regulation immunofluorescence assay in MCF-7; assay type: cell-based; conditions: ERα downregulation measured in MCF-7; read-out: MCF-7 DR (IC50 nM)
# T1 sequence (P03372 1-595): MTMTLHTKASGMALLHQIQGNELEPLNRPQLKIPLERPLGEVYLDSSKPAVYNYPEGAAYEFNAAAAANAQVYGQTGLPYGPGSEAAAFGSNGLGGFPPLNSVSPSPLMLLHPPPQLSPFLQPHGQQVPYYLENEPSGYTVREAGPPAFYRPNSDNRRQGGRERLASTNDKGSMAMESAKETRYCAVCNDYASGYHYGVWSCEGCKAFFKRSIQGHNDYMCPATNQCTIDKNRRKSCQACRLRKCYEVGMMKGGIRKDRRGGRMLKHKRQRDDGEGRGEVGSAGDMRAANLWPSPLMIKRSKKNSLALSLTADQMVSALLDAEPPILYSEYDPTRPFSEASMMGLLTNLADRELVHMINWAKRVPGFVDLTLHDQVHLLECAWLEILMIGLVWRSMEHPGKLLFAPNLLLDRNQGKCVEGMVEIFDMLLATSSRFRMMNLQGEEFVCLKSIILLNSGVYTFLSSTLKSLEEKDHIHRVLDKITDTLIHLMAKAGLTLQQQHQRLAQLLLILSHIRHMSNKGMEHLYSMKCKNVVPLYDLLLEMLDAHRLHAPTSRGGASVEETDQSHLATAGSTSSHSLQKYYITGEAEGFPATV
# [5] = system: progesterone receptor (PR); test: ERα functional antagonism cell assay (PR as biomarker) in MCF-7; assay type: cell-based; conditions: Homo sapiens, MCF7; progesterone receptor as biomarker for ERα antagonism in MCF-7
# [6] = system: p53 promoter activity (p21 promoter); test: qChIP of ERα-p53 interaction on the p21 promoter in MCF-7; assay type: cell-based, human
# [7] = system: MCF-7 cells; test: Cell cycle distribution by flow cytometry; assay type: cell-based, human; conditions: 24 h
# [8] = system: MNU-induced breast cancer; test: In vivo anticancer screening, MNU-induced mammary tumorigenesis; design: species or system female Wistar rats
# [9] = Serum biochemical markers after treatment of MNU-induced rats; assay type: in vivo, Wistar rats; design: TBC: unit not given here; conditions: for ALP (A/L) / ALT (A/L) / AST (U/L) / γ-GT (U/L): serum; for TBC: total bilirubin content
# In short: (§1)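 Mammary tumours induced in rats by MNU 50 mg/kg i.p. at day 50; after two weeks, compounds given orally at 5 or 50 mg/kg once daily for six weeks. Serum AST, ALT (340 nm), ALP (405 nm) and bilirubin measured; liver homogenate GSH, CAT, MDA by colorimetry; plasma binding by ultrafiltration at 37°C with BCA protein read-out.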
# [10] = Liver oxidative stress markers after treatment of MNU-induced rats; assay type: in vivo, Wistar rats; conditions: liver; for CAT: catalase activity; for GSH: reduced glutathione; for SOD (U/mg): superoxide dismutase activity
# In short: as §1
# [11] = rat, in vivo
# [12] = Lipophilicity by shake-flask method; conditions: pH 7.4
# [13] = Pharmacokinetics study, oral bioavailability; conditions: rat
# [14] = MTT antiproliferative assay (neutral control); conditions: human
# [15] = dose 50 mg/kg (compounds per os after MNU; MNU alone i.p.)
# Sequence of ERβ (Q92731 whole entry): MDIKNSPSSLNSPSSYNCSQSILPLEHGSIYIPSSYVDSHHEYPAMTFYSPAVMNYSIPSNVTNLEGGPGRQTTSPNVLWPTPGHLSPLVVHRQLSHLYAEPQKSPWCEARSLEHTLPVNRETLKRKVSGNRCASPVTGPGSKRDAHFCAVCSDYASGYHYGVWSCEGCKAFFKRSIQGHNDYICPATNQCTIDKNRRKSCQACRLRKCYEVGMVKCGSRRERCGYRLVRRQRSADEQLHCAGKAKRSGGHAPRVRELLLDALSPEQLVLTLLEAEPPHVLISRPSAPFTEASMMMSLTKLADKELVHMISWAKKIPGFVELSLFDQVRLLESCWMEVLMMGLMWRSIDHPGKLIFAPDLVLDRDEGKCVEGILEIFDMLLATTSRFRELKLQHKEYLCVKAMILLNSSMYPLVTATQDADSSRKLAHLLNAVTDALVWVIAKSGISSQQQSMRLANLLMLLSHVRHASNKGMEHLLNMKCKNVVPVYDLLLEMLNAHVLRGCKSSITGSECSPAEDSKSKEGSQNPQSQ
smiles,measurement,setting,value
"CC(=O)c1cc(C(=O)O[C@@H]2/C=C/C(=O)O[C@@H](O)CCC/C=C/[C@@H]3C[C@H](O)C[C@H]32)ccc1OCCN(C)C [Compound 3DPQ-2, (1R,2E,6R,10E,11aS,13S,14aR)-6,13-dihydroxy-4-oxo-4,6,7,8,9,11a,12,13,14,14a-decahydro-1H-cyclopenta[f][1]oxacyclotridecin-1-yl 3-acetyl-4-(2-(dimethylamino)ethoxy)benzoate]",Ki,"[1]; calculated antagonistic (inhibitory) constant, read-out: Ka ERβ",43.4 nM
same,IC50,"[1]; concentration that antagonizes 50% of ERβ signaling activity, read-out: ERβ (IC50 nM)",77.24 ± 0.42 nM
same,logRBA ERβ,"[1]; log of % relative binding affinity, estradiol = 100%","0.06 ^†,‡,§"
same,IC50,"[2]; Homo sapiens, MCF7, growth inhibition, 48 h, read-out: MCF-7 (IC50 nM)",0.73 ± 0.42 nM
same,"MCF-7 antiproliferative potency, fold higher than Ral",[2]; ratio of IC50 values,1.21 fold
same,SI,[2]; selectivity index [IC50(MDA-MB-231)]/[IC50(MCF-7)],"99.20 ^‡,§"
same,IC50,[3],72.42 ± 0.47 nM
same,IC50,[4],> 100 nM
same,IC50,[5],> 100 nM
same,"p53 promoter activity, fold higher than the one provoked by Ral",[6]; higher concentration (1 nM),0.66 fold
same,"p53 promoter activity, fold higher than the one provoked by Ral",[6]; lower concentration (0.1 nM),0.733 fold
same,Cell Cycle (%) G0/G1,[7]; 0.1 nM,"73.64 ± 5.32 *^,†,‡,§ %"
same,Cell Cycle (%) G2/M,[7]; 0.1 nM,"14.48 ± 2.54 *^,†,‡,§ %"
same,Cell Cycle (%) S,[7]; 0.1 nM,"11.88 ± 0.87 *^,†,‡,§ %"
same,Cell Cycle (%) G0/G1,[7]; 1 nM,"76.10 ± 1.43 *^,†,‡,§ %"
same,Cell Cycle (%) G2/M,[7]; 1 nM,"11.32 ± 3.25 *^,†,‡,§ %"
same,Cell Cycle (%) S,[7]; 1 nM,"12.59 ± 1.57 *^,†,‡,§ %"
same,Tumor Burden (week),[8]; dose 5 mg/kg per os after MNU,"3.34 ± 0.57 *^,†,‖ week"
same,Tumor Latency (week),[8]; dose 5 mg/kg per os after MNU,9 * week
same,Tumor Volume (mm^3),[8]; dose 5 mg/kg per os after MNU,"0.96 ± 0.41 *^,†,‡,‖ mm^3"
same,Tumor Burden (week),[8]; [15],"1.98 ± 0.45 *^,†,§,┴ week"
same,Tumor Latency (week),[8]; [15],"12 *^,† week"
same,Tumor Volume (mm^3),[8]; [15],"0.69 ± 0.23 *^,†,§,┴ mm^3"
same,ALP (A/L),[9]; dose 5 mg/kg,98.53±0.14 A/L
same,ALT (A/L),[9]; dose 5 mg/kg,46.89±0.74 A/L
same,AST (U/L),[9]; dose 5 mg/kg,56.43±0.21 U/L
same,γ-GT (U/L),[9]; dose 5 mg/kg,16.52±0.42 U/L
same,ALP (A/L),[9]; dose 50 mg/kg,119.47±0.13 A/L
same,ALT (A/L),[9]; dose 50 mg/kg,49.47±0.64 A/L
same,AST (U/L),[9]; dose 50 mg/kg,59.54±0.32 U/L
same,γ-GT (U/L),[9]; dose 50 mg/kg,17.35±0.56 U/L
same,TBC,[9]; dose 5 mg/kg,16.43
same,TBC,[9]; dose 50 mg/kg,17.72
same,CAT,[10]; dose 5 mg/kg,15.54±0.51
same,CAT,[10]; dose 50 mg/kg,17.31±0.63
same,TBARS,[10]; dose 5 mg/kg,0.56 nmol/mg
same,TBARS,[10]; dose 50 mg/kg,0.75 nmol/mg
same,GSH,[10]; dose 5 mg/kg,9.96 mg/g
same,GSH,[10]; dose 50 mg/kg,10.35 mg/g
same,SOD (U/mg),[10]; dose 5 mg/kg,9.63±0.56 U/mg
same,SOD (U/mg),[10]; dose 50 mg/kg,12.3±0.36 U/mg
same,TP,"[10]; total protein content, dose 50 mg/kg",41.54 g/L
same,"WL after MFD (day 1, mg)",[11],305.03 ± 0.66 mg
same,logD at 30 min,[12],1.99
same,BIO,[13]; oral 5 mg/kg,92
same,BIO,[13]; oral 50 mg/kg,94
same,IC50 at 48 h,[14],> 100 nM
